Laboratory results from patent US20230081426A1, “COMPOUNDS AND METHODS FOR KRAS MODULATION AND INDICATIONS THEREFOR” (Plexxikon Inc., priority 2020, published 2023).

How the values were obtained:
[1] = biological target: T1, G12V-mutant human KRAS (amino acid residues 1-188) (Homo sapiens, UniProt P01116, G12V); assay: KRAS Binding Competition Assay (AlphaScreen; biotinylated KRpep-2d analogue), G12V; settings: geometric mean, read-out: KRAS GMean IC50 (uM) MUTATION: G12V
T1 construct: G12V-mutant human KRAS (amino acid residues 1-188) with FLAG tag was purified from E. coli; made in house; host or cells: E. coli

[2] = biological target: T2, G12C-mutant human KRAS (amino acid residues 1-188) (Homo sapiens, UniProt P01116, G12C); assay: KRAS Binding Disruption Assay (AlphaScreen; biotinylated KRpep-2d analogue or RAF1-RBD), G12C; settings: geometric mean, read-out: KRAS GMean IC50 (uM) MUTATION: G12C
T2 construct: G12D or G12C-mutant human KRAS (amino acid residues 1-188) with FLAG tag; made in house; host or cells: E. coli
In short: (§1)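 AlphaScreen readout: signal falls as compound displaces biotinylated KRpep-2d analogue or RAF1-RBD from mutant KRAS. Both partners at 5-20 nM, 1 h binding at 25° C, then 10 μg/mL Anti-Flag acceptor and streptavidin donor beads for 1 h. IC50 by nonlinear regression of % inhibition.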

[3] = biological target: T3, G12D-mutant human KRAS (amino acid residues 1-188) (Homo sapiens, UniProt P01116, G12D); assay: KRAS Binding Disruption Assay (AlphaScreen; biotinylated KRpep-2d analogue or RAF1-RBD), G12D; settings: KRAS G12D; geometric mean; read-out: KRAS GMean IC50 (uM) MUTATION: G12D
T3 construct: G12D or G12C-mutant human KRAS (amino acid residues 1-188) with FLAG tag; made in house; host or cells: E. coli
In short: as §1

| Compound | IC50 [1] [µM] | IC50 [2] [µM] | IC50 [3] [µM] |
| --- | --- | --- | --- |
| Oc1cc(-c2ccc3c(N4C[C@H]5CC[C@@H](C4)N5)nc(OCC45CCCN4CCC5)nc3c2F)c2ccccc2c1 [P-0048, 4-(4-((1R,5S)-3,8-diazabicyclo[3.2.1]octan-3-yl)-8-fluoro-2-((tetrahydro-1H-pyrrolizin-7a(5H)-yl)methoxy)quinazolin-7-yl)naphthalen-2-ol] | 0.0001 to 10 | 0.0001 to 10 | 0.0001 to 10 |
| CN1CCC[C@H]1COc1nc(N2C[C@H]3CC[C@@H](C2)N3C(N)=O)c2ccc(-c3cc(O)cc4ccccc34)c(F)c2n1 [P-0103, (1R,5S)-3-(8-fluoro-7-(3-hydroxynaphthalen-1-yl)-2-(((S)-1-methylpyrrolidin-2-yl)methoxy)quinazolin-4-yl)-3,8-diazabicyclo[3.2.1]octane-8-carboxamide] | 0.0001 to 10 | 0.0001 to 10 | 0.0001 to 10 |
| C=CC(=O)N1[C@@H]2CC[C@H]1CN(c1nc(OC[C@@]34CCCN3C[C@H](F)C4)nc3c(F)c(-c4cc(O)cc5cccc(Cl)c45)ccc13)C2 [P-0502, 1-((1R,5S)-3-(7-(8-chloro-3-hydroxynaphthalen-1-yl)-8-fluoro-2-(((2R,7aS)-2-fluorotetrahydro-1H-pyrrolizin-7a(5H)-yl)methoxy)quinazolin-4-yl)-3,8-diazabicyclo[3.2.1]octan-8-yl)prop-2-en-1-one] | 0.0001 to 10 | 0.0001 to 10 | 0.0001 to 10 |
| O=C(NC1CNC1)N1[C@@H]2CC[C@H]1CN(c1nc(OCC34CCCN3CCC4)nc3cc(-c4cc(O)cc5ccccc45)ccc13)C2 [P-0125, (1R,5S)-N-(azetidin-3-yl)-3-(7-(3-hydroxynaphthalen-1-yl)-2-((tetrahydro-1H-pyrrolizin-7a(5H)-yl)methoxy)quinazolin-4-yl)-3,8-diazabicyclo[3.2.1]octane-8-carboxamide] | 0.0001 to 10 | 0.0001 to 10 | 0.0001 to 10 |
| O=C(N[C@H]1CCNC1)N1[C@@H]2CC[C@H]1CN(c1nc(OCC34CCCN3CCC4)nc3cc(-c4cc(O)cc5ccccc45)ccc13)C2 [P-0123, (1R,5S)-3-(7-(3-hydroxynaphthalen-1-yl)-2-((tetrahydro-1H-pyrrolizin-7a(5H)-yl)methoxy)quinazolin-4-yl)-N-((S)-pyrrolidin-3-yl)-3,8-diazabicyclo[3.2.1]octane-8-carboxamide] | 0.0001 to 10 | 0.0001 to 10 | 0.0001 to 10 |
| NS(=O)(=O)CC(=O)N1[C@@H]2CC[C@H]1CN(c1nc(OCC34CCCN3CCC4)nc3c(F)c(-c4cc(O)cc5ccccc45)ccc13)C2 [P-0352, 2-((1R,5S)-3-(8-fluoro-7-(3-hydroxynaphthalen-1-yl)-2-((tetrahydro-1H-pyrrolizin-7a(5H)-yl)methoxy)quinazolin-4-yl)-3,8-diazabicyclo[3.2.1]octan-8-yl)-2-oxoethane-1-sulfonamide] | 0.0001 to 10 | 0.0001 to 10 | 0.0001 to 10 |
| O=C(N[C@@H]1CCNC1)N1[C@@H]2CC[C@H]1CN(c1nc(OCC34CCCN3CCC4)nc3cc(-c4cc(O)cc5ccccc45)ccc13)C2 [P-0122, (1R,5S)-3-(7-(3-hydroxynaphthalen-1-yl)-2-((tetrahydro-1H-pyrrolizin-7a(5H)-yl)methoxy)quinazolin-4-yl)-N-((R)-pyrrolidin-3-yl)-3,8-diazabicyclo[3.2.1]octane-8-carboxamide] | 0.0001 to 10 | 0.0001 to 10 | 0.0001 to 10 |
| O=C(NC1CCNCC1)N1[C@@H]2CC[C@H]1CN(c1nc(OCC34CCCN3CCC4)nc3cc(-c4cc(O)cc5ccccc45)ccc13)C2 [P-0134, (1R,5S)-3-(7-(3-hydroxynaphthalen-1-yl)-2-((tetrahydro-1H-pyrrolizin-7a(5H)-yl)methoxy)quinazolin-4-yl)-N-(piperidin-4-yl)-3,8-diazabicyclo[3.2.1]octane-8-carboxamide] | 0.0001 to 10 | 0.0001 to 10 | 0.0001 to 10 |
| CN1CCC[C@H]1COc1nc(N2C[C@H]3CC[C@@H](C2)N3C(=O)NC2CCNC2)c2ccc(-c3cc(O)cc4ccccc34)c(F)c2n1 (stereo partly drawn) [P-0106, (1R,5S)-3-(8-fluoro-7-(3-hydroxynaphthalen-1-yl)-2-(((S)-1-methylpyrrolidin-2-yl)methoxy)quinazolin-4-yl)-N-(pyrrolidin-3-yl)-3,8-diazabicyclo[3.2.1]octane-8-carboxamide] | 0.0001 to 10 | 0.0001 to 10 | 0.0001 to 10 |
| CN1CCC[C@H]1COc1nc(N2C[C@H]3CC[C@@H](C2)N3C(=O)CC2SC(=O)NC2=O)c2cc(F)c(-c3cc(O)cc4ccccc34)c(F)c2n1 (stereo partly drawn) [P-0463, 5-(2-((1R,5S)-3-(6,8-difluoro-7-(3-hydroxynaphthalen-1-yl)-2-(((S)-1-methylpyrrolidin-2-yl)methoxy)quinazolin-4-yl)-3,8-diazabicyclo[3.2.1]octan-8-yl)-2-oxoethyl)thiazolidine-2,4-dione] | 0.0001 to 10 | 0.0001 to 10 | 0.0001 to 10 |
| O=C(Cn1ccnc1)N1[C@@H]2CC[C@H]1CN(c1nc(OCC34CCCN3CCC4)nc3c(F)c(-c4cc(O)cc5ccccc45)ccc13)C2 [P-0387, 1-((1R,5S)-3-(8-fluoro-7-(3-hydroxynaphthalen-1-yl)-2-((tetrahydro-1H-pyrrolizin-7a(5H)-yl)methoxy)quinazolin-4-yl)-3,8-diazabicyclo[3.2.1]octan-8-yl)-2-(1H-imidazol-1-yl)ethan-1-one] | 0.0001 to 10 | 0.0001 to 10 | 0.0001 to 10 |
| Oc1cc(-c2ccc3c(N4C[C@H]5CC[C@@H](C4)N5)nc(OCC45CCCCN4CCC5)nc3c2)c2ccccc2c1 (stereo partly drawn) [P-0102, 4-(4-((1R,5S)-3,8-diazabicyclo[3.2.1]octan-3-yl)-2-((hexahydroindolizin-8a(1H)-yl)methoxy)quinazolin-7-yl)naphthalen-2-ol] | 0.0001 to 10 | 0.0001 to 10 | 0.0001 to 10 |
| CN1CCC[C@H]1COc1nc(N2C[C@H]3CC[C@@H](C2)N3)c2cc(F)c(-c3cc(O)cc4ccccc34)c(F)c2n1 [P-0009, 4-(4-((1R,5S)-3,8-diazabicyclo[3.2.1]octan-3-yl)-6,8-difluoro-2-(((S)-1-methylpyrrolidin-2-yl)methoxy)quinazolin-7-yl)naphthalen-2-ol] | 0.0001 to 10 | 0.0001 to 10 | 0.0001 to 10 |
| O=C(c1n[nH]c(=O)[nH]1)N1[C@@H]2CC[C@H]1CN(c1nc(OCC34CCCN3CCC4)nc3cc(-c4cc(O)cc5ccccc45)ccc13)C2 [P-0099, 5-((1R,5S)-3-(7-(3-hydroxynaphthalen-1-yl)-2-((tetrahydro-1H-pyrrolizin-7a(5H)-yl)methoxy)quinazolin-4-yl)-3,8-diazabicyclo[3.2.1]octane-8-carbonyl)-2,4-dihydro-3H-1,2,4-triazol-3-one] | 0.0001 to 10 | 0.0001 to 10 | 0.0001 to 10 |
| CN1CCC[C@H]1COc1nc(N2C[C@H]3CC[C@@H](C2)N3C(=O)C(N)=O)c2ccc(-c3cc(O)cc4ccccc34)c(F)c2n1 [P-0397, 2-((1R,5S)-3-(8-fluoro-7-(3-hydroxynaphthalen-1-yl)-2-(((S)-1-methylpyrrolidin-2-yl)methoxy)quinazolin-4-yl)-3,8-diazabicyclo[3.2.1]octan-8-yl)-2-oxoacetamide] | 0.0001 to 10 | 0.0001 to 10 | 0.0001 to 10 |
| CN1CCC[C@H]1COc1nc(N2CC3COCC(C2)N3)c2cc(Cl)c(-c3cc(O)cc4cccc(Cl)c34)c(F)c2n1 [P-0365, 4-(4-(3-oxa-7,9-diazabicyclo[3.3.1]nonan-7-yl)-6-chloro-8-fluoro-2-(((S)-1-methylpyrrolidin-2-yl)methoxy)quinazolin-7-yl)-5-chloronaphthalen-2-ol] | 0.0001 to 10 | 0.0001 to 10 | 0.0001 to 10 |
| NC(=O)N1[C@@H]2CC[C@H]1CN(c1nc(OCC34CCCN3CCC4)nc3cc(-c4cc(O)cc5ccccc45)ccc13)C2 [P-0067, (1R,5S)-3-(7-(3-hydroxynaphthalen-1-yl)-2-((tetrahydro-1H-pyrrolizin-7a(5H)-yl)methoxy)quinazolin-4-yl)-3,8-diazabicyclo[3.2.1]octane-8-carboxamide] | 0.0001 to 10 | 0.0001 to 10 | 0.0001 to 10 |
| O=C(CCCn1ccnc1)N1[C@@H]2CC[C@H]1CN(c1nc(OCC34CCCN3CCC4)nc3c(F)c(-c4cc(O)cc5ccccc45)ccc13)C2 [P-0351, 1-((1R,5S)-3-(8-fluoro-7-(3-hydroxynaphthalen-1-yl)-2-((tetrahydro-1H-pyrrolizin-7a(5H)-yl)methoxy)quinazolin-4-yl)-3,8-diazabicyclo[3.2.1]octan-8-yl)-4-(1H-imidazol-1-yl)butan-1-one] | 0.0001 to 10 | 0.0001 to 10 | 0.0001 to 10 |
| CN1CCC[C@H]1COc1nc(N2C[C@H]3CC[C@@H](C2)N3)c2cc(C(=O)O)c(-c3cc(O)cc4ccccc34)c(F)c2n1 [P-0024, 4-(3,8-Diazabicyclo[3.2.1]octan-3-yl)-8-fluoro-7-(3-hydroxy-1-naphthyl)-2-[[(2S)-1-methylpyrrolidin-2-yl]methoxy]quinazoline-6-carboxylic acid] | 0.0001 to 10 | 10 to 100 | 0.0001 to 10 |
| O=C1NC(=O)C(CC(=O)N2[C@@H]3CC[C@H]2CN(c2nc(OCC45CCCN4CCC5)nc4c(F)c(-c5cc(O)cc6ccccc56)ccc24)C3)S1 (stereo partly drawn) [P-0299, 5-(2-((1R,5S)-3-(8-fluoro-7-(3-hydroxynaphthalen-1-yl)-2-((tetrahydro-1H-pyrrolizin-7a(5H)-yl)methoxy)quinazolin-4-yl)-3,8-diazabicyclo[3.2.1]octan-8-yl)-2-oxoethyl)thiazolidine-2,4-dione] | 0.0001 to 10 | 0.0001 to 10 | 0.0001 to 10 |
